The term IC50 denotes the point on the concentration scale where inhibition reaches its midpoint.

Here are results for ten molecules from patent publication US10512634B2, “Benzimidazole derivates useful as inhibitors of mammalian histone deacetylase activity” (KANCERA AB, priority 2015, dated 2019).

Like-named read-outs stand apart in the source and are kept apart here. Some results are limits rather than exact numbers.

Experiment [1] relates to AMO-1 (plasmacytom). The experiment is described as follows: CellTiter-Blue cell viability assay. Format: cell-based. The settings on record: Homo sapiens, AMO1; AMO-1 cells, 72 hours of treatment; read-out: IC50 AMO-1 (cell viability). The method, then: (§1) Method for Measurement of Cell Viability
(§2) The CellTiter-Blue® Cell Viability Assay (Promega) provides a homogeneous, fluorometric method for estimating the number of viable cells present in multi-well plates. The assay uses the indicator dye resazurin to measure the metabolic capacity of cells. Viable cells retain the ability to reduce resazurin into resorufin, which is highly fluorescent.
(§3) Stock solutions (10 mM in DMSO) of compounds were serially diluted 1:2 in 11 concentrations. 50 nL/well (10 mM compound stock in DMSO) was acoustically dispensed in 384-well assay plates with an acoustic dispenser (EDC Biosystems ATS-100AV). Final starting concentration in the assay was 20 μM (0.2% DMSO) for test compounds. […] After 72 hours, Celltiter Blue reagent (Promega #G8081) was diluted 1:10 with PBS and then added to wells (5 μL/well). The plates were incubated for 2 hours following addition of reagent. […] Results were calculated as % cell viability compared to background (cells treated with 0.2% DMSO).
On the technique in general: Resazurin is reduced to fluorescent resorufin, in cell work by metabolically active cells.

Experiment [2] has as its system U266 (multiple myelom). Put plainly: CellTiter-Blue cell viability assay. Type of experiment: cell-based. To be noted: Homo sapiens, U-266; U266 cells, 72 hours of treatment; read-out: IC50 U266 (cell viability). The method, then: as §1, §2, §3
The subject of experiment [3] is PaCa2 (pancreatic). The experiment is described as follows: CellTiter-Blue cell viability assay. Format: cell-based. To be noted: PaCa-2; PaCa2 cells, 72 hours of treatment; read-out: IC50 PaCa2 (cell viability). Here is the method: as §1, §2, §3
Experiment [4] relates to PBMC (peripheral blood mononuclear cells from healthy donors). The experiment is described as follows: CellTiter-Blue cell viability assay. Format: cell-based. The settings on record: healthy PBMC, 72 hours of treatment; read-out: IC50 healthy PBMC (cell viability). The method, then: as §1, §2, §3
Experiment [5] deals with HDAC6 (Homo sapiens (Human), UniProt Q9UBN7). Put plainly: HDAC in vitro enzymatic assay (fluorescence). Type of experiment: biochemical. To be noted: top concentration 2 μM. The method, then:
Biological Tests Method for Measurement of Enzymatic Activity of HDACs Materials & Methods
All Examples were tested in HDAC1, 2, 3, 6 and 8 in vitro enzymatic assays. The assay principle is well known (Hauser et al. 2009, Bradner et al. 2010) and all necessary reagents like enzymes, substrates, developer and reference compounds are commercially available (see e.g. BPS Biosciences http://www.bpsbioscience.com/). A series of dilutions of the compounds were prepared with a top concentration of 200 μM (2 μM for HDAC6). The enzymatic reactions were conducted in a mixture containing assay buffer, bovine serum albumin, HDAC substrate, and a test compound. After enzymatic reaction, developer was added and after an additional incubation time, fluorescence intensity was measured at an excitation wavelength of 360 nm and an emission wavelength of 460 nm. A selection of the Examples were tested in a full HDAC panel containing HDAC1, 2, 3, 4, 5, 6, 7, 8, 9, 10 and 11 in vitro enzymatic assays. The tests were performed as above except that a series of dilutions of the compounds were prepared with a top concentration of 10 μM for all HDACs.

The target in experiment [6] is HDAC8 (Homo sapiens (Human), UniProt Q9BY41). Put plainly: HDAC in vitro enzymatic assay (fluorescence). The settings on record: read-out: IC50 HDAC8; selectivity profiling; top concentration 200 μM.
Experiment [7] addresses HDAC3 (Homo sapiens (Human), UniProt O15379). Put plainly: HDAC in vitro enzymatic assay (fluorescence). The settings on record: read-out: IC50 HDAC3; selectivity profiling; top concentration 200 μM.
Experiment [8] addresses HDAC1 (Homo sapiens (Human), UniProt Q13547). Put plainly: HDAC in vitro enzymatic assay (fluorescence). To be noted: read-out: IC50 HDAC1; selectivity profiling; top concentration 200 μM.
Experiment [9] has as its target HDAC2 (Homo sapiens (Human), UniProt Q92769). The experiment is described as follows: HDAC in vitro enzymatic assay (fluorescence). The settings on record: read-out: IC50 HDAC2; selectivity profiling; top concentration 200 μM.
[10] abbreviates: read-out: IC50 values for inhibition of HDAC6.
Where [11] appears, read: selectivity profiling, read-out: IC50 HDAC6.

Sequence of HDAC3 (O15379 whole entry): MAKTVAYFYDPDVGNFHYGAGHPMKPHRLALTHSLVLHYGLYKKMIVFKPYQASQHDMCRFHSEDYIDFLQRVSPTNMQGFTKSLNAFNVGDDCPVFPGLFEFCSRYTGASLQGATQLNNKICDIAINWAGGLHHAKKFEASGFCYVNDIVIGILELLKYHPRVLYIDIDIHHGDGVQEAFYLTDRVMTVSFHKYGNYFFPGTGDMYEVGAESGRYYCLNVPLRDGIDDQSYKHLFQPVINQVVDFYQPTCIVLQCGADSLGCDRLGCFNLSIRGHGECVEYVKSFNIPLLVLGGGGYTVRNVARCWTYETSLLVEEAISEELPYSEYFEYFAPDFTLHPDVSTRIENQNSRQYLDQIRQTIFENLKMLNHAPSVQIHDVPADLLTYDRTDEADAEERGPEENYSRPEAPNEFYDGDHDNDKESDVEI
Sequence of HDAC3 (Q9Y618 395-489 partner): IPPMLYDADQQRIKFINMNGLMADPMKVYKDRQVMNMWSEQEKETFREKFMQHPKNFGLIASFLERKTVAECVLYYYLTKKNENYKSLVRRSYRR
Sequence of HDAC1 (Q13547 whole entry): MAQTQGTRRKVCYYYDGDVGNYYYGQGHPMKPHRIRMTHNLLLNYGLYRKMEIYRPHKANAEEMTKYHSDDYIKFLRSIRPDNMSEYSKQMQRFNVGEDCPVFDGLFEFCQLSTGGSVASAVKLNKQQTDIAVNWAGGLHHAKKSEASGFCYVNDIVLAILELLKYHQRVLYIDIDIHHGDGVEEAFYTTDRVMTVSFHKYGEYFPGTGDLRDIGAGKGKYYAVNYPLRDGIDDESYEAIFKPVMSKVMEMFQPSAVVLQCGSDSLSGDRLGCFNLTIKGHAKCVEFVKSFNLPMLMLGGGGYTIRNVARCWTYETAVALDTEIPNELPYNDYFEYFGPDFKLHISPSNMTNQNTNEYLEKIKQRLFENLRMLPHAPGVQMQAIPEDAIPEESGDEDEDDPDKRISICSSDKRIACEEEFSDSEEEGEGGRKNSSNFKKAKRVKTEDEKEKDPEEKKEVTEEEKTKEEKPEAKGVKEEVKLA
Sequence of HDAC2 (Q92769 whole entry): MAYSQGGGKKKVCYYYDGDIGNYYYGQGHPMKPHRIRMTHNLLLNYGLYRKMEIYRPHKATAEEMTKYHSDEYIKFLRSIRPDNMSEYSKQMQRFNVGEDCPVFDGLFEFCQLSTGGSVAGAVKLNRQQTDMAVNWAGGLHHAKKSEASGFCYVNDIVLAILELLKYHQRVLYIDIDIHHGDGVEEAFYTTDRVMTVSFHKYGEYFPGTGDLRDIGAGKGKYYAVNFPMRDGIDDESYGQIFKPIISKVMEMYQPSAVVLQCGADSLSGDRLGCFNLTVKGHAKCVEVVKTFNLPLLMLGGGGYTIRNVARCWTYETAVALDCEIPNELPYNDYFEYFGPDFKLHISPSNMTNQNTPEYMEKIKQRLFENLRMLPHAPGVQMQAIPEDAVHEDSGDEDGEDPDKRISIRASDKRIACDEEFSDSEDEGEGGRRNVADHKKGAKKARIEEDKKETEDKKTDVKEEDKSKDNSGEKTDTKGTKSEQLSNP
Sequence of HDAC8 (Q9BY41 whole entry): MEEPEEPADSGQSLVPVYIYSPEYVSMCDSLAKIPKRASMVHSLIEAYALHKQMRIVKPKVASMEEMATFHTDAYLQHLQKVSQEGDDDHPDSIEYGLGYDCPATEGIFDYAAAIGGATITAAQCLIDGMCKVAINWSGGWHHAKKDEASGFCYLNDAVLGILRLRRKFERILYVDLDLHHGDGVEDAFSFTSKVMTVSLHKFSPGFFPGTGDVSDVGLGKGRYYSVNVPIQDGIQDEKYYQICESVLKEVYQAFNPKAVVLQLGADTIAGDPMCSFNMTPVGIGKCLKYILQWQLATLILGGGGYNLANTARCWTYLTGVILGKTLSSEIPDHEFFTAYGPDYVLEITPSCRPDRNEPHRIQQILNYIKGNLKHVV

With `O=C(NO)c1ccc2nc(-c3ccc(Br)cc3)[nH]c2c1` [Example 3, 2-(4-bromophenyl)-N-hydroxy-1H-benzimidazole-6-carboxamide], the IC50 in experiment [1] was 6300 nM; in [2], 2900 nM; in experiment [3], 6000 nM; in experiment [4], above 20000 nM; in experiment [5] (setting [10]), 45 nM.

On to `O=C(NO)c1ccc2nc(-c3ccc(Oc4ccccc4)cc3)[nH]c2c1` [Example 8, N-hydroxy-2-(4-phenoxyphenyl)-1H-benzimidazole-6-carboxamide], for which the half-inhibitory concentration (IC50) in experiment [1] was 2300 nM; in experiment [2], 2000 nM; in [3], 1700 nM; in experiment [4] it was above 20000 nM.

With `COc1ccc2cc(-c3nc4ccc(C(=O)NO)cc4[nH]3)ccc2c1` [Example 10, N-hydroxy-2-(6-methoxynaphthalen-2-yl)-1H-benzimidazole-6-carboxamide], the half-maximal inhibitory concentration (IC50) is 2200 nM in experiment [1], 2100 nM in [2], 1200 nM in experiment [3] and above 20000 nM in experiment [4].

Regarding `O=C(NO)c1ccc2nc(-c3cccc(C(F)(F)F)c3Cl)[nH]c2c1` [Example 34, 2-[2-chloro-3-(trifluoromethyl)phenyl]-N-hydroxy-1H-benzimidazole-6-carboxamide], the IC50 is 10000 nM in experiment [1], 3900 nM in experiment [2], 12000 nM in experiment [3] and above 20000 nM in experiment [4].

Take `O=C(NO)c1ccc2nc(-c3ccc(-c4cccc(Cl)c4)cc3)[nH]c2c1` [Example 151, 2-(3′-chlorobiphenyl-4-yl)-N-hydroxy-1H-benzimidazole-6-carboxamide]: the IC50 in experiment [1] is 1900 nM; in [2] it was 490 nM; in experiment [3], 1000 nM; in experiment [4], above 20000 nM.

Regarding `CC(C)(C)c1ccc(-c2nc3ccc(C(=O)NO)cc3[nH]2)cc1` [Example 159, 2-(4-tert-butylphenyl)-N-hydroxy-1H-benzimidazole-6-carboxamide], the concentration for half-maximal inhibition (IC50) in experiment [1] is 6300 nM; in experiment [2], 1200 nM; in experiment [3], 2100 nM; in experiment [4] it was above 20000 nM; in experiment [5] (setting [10]) it was 19 nM.

On to `CCCCCCCCCc1ccc(-c2nc3ccc(C(=O)NO)cc3[nH]2)cc1` [Example 161, 2-(4-nonylphenyl)-N-hydroxy-1H-benzimidazole-6-carboxamide], for which the IC50 is 5500 nM in [1], 640 nM in [2], 610 nM in experiment [3] and above 20000 nM in experiment [4].

With `O=C(NO)c1ccc2nc(-c3ccc(-c4cccc(Cl)c4)s3)[nH]c2c1` [Example 177, 2-[5-(3-chlorophenyl)thiophen-2-yl]-N-hydroxy-1H-benzimidazole-6-carboxamide], the IC50 was 3500 nM in [1]; 620 nM in experiment [2]; 1100 nM in experiment [3]; above 20000 nM in experiment [4]; 5.1 nM in experiment [5] (setting [10]).

With `CN1CCN(Cc2ccc(-c3nc4ccc(C(=O)NO)cc4[nH]3)cc2)CC1` [Example 207, N-hydroxy-2-{4-[(4-methylpiperazin-1-yl)methyl]phenyl}-1H-benzimidazole-6-carboxamide], the half-inhibitory concentration (IC50) in experiment [6] is 1800 nM; in experiment [7], 250 nM; in [8] it was 700 nM; in [9] it was 7800 nM; in experiment [5] (setting [11]), 7 nM; in experiment [5] (setting [10]), 7 nM.

`COc1c(C)cc(-c2nc3cc(C(=O)NO)ccc3n2C)cc1C` [Example 228, N-hydroxy-2-(4-methoxy-3,5-dimethylphenyl)-1-methyl-1H-benzimidazole-5-carboxamide]: the concentration for half-maximal inhibition (IC50) in experiment [6] amounted to 100 nM; in experiment [7], 216 nM; in experiment [8] it was 2000 nM; in [9], 20000 nM; in experiment [5] (setting [11]) it was 3.5 nM; in [5] (setting [10]), 3.5 nM.
